Laboratory results taken from patent US12502434B2, “Compound comprising EZH2 inhibitor and E3 ligase binder and pharmaceutical composition for preventing or treating EZH2-associated disease comprising same as active ingredient” (DAEGU-GYEONGBUK MEDICAL INNOVATION FOUNDATION, priority 2019, dated 2025).

Target: T1, EZH2 protein in LS174T cells (Homo sapiens, UniProt Q15910)
T1 construct: endogenous in cells; host or cells: LS174T
Assay: Proteolytic effect in colorectal cancer cells (Western blotting)
Assay type: cell-based
Conditions: LS174T cells; for Grade (percent value of the protein degradation when treated with 1 μM) / %, degradation at 1 uM: EZH2 protein, 72 hours; for %, degradation at 1 uM: Western blotting
Procedure: After 72 hours of the treatment, the cells were collected and lysed using RIPA buffer (50 mM Tris, pH 7.5, 150 mM NaCl, 1% Triton X-100, 0.1% SDS, […], 0.5% deoxycholate, and protease inhibitor cocktail), followed by sonication (30 sec on/30 sec off, 5 cycles) to prepare a cell lysate.

T1 sequence (Q15910 whole entry): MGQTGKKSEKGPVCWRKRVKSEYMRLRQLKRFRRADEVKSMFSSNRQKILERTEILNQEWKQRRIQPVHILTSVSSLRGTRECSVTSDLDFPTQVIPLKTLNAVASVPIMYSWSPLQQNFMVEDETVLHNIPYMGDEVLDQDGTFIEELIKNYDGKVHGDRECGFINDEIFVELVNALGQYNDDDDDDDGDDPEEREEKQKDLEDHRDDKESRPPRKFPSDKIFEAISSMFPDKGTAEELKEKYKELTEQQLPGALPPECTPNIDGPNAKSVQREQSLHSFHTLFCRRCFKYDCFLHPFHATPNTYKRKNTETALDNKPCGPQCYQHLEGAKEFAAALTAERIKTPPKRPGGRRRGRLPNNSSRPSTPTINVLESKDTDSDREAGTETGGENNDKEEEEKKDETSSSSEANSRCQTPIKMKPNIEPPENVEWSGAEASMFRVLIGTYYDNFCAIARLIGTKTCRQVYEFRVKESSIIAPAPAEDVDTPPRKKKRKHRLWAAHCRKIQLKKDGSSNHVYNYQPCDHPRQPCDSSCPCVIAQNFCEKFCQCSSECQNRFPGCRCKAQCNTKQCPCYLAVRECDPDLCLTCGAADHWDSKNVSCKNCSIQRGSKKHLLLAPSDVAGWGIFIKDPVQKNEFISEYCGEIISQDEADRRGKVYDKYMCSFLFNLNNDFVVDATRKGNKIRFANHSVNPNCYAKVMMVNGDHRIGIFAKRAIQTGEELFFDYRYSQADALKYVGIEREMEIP
T1 sequence (O75530 whole entry partner): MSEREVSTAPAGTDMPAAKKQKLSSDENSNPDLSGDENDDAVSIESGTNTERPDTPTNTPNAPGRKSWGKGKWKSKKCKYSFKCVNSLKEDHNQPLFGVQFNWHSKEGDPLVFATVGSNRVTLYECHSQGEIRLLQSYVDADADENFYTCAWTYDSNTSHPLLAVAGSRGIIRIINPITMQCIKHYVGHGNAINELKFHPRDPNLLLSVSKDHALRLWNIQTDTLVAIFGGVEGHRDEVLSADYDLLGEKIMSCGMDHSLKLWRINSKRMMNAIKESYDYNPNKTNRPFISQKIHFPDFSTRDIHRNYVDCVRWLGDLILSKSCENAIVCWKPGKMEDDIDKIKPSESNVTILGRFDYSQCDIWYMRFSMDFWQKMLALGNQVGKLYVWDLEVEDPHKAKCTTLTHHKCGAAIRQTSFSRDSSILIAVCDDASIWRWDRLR
T1 sequence (Q15022 whole entry partner): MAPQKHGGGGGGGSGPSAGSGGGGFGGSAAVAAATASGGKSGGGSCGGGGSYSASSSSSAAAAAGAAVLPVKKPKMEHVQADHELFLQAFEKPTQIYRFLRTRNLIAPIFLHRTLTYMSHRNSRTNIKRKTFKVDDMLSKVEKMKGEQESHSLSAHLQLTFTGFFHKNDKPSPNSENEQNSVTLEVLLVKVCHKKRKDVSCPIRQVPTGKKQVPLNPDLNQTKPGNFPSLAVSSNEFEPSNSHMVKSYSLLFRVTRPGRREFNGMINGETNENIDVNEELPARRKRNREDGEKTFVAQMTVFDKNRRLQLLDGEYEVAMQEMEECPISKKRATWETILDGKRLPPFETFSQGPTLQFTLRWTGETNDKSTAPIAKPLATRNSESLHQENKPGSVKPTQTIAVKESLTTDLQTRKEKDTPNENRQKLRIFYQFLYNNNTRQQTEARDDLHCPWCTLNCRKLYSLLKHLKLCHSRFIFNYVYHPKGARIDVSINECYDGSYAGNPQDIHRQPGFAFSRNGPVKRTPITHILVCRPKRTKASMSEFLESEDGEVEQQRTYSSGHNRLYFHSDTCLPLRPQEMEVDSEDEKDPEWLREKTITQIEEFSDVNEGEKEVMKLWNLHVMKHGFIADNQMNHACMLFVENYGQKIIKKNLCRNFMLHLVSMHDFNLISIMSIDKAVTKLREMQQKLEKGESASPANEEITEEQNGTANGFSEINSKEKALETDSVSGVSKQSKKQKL

Row | Structure (SMILES) | Grade (percent value of the protein degradation when treated with 1 μM) | %, degradation at 1 uM [%] | effect of degrading EZH2 protein when treated to colorectal cancer cells (in words)
1 | CCN(c1cc(-c2ccc(CN3CCN(CC(=O)N4CCC5(CCN(CCCCNc6cccc7c6C(=O)N(C6CCC(=O)NC6=O)C7=O)C5)C4)CC3)cc2)cc(C(=O)NCc2c(C)cc(C)[nH]c2=O)c1C)C1CCOCC1 (stereo not drawn) [Example 34, N-((4,6-dimethyl-2-oxo-1,2-dihydropyridine-3-yl)methyl)-4′-((4-(2-(7-(4-((2-(2,6-dioxopiperidine-3-yl)-1,3-dioxoisoindoline-4-yl)amino)butyl)-2,7-diazaspiro[4.4]nonane-2-yl)-2-oxoethyl)piperazine-1-yl)methyl)-5-(ethyl(tetrahydro-2H-pyran-4-yl)amino)-4-methyl-[1,1′-biphenyl]-3-carboxamide] | D (<25%) | 0 | –
2 | CCN(c1cc(-c2ccc(CN3CCN(CC(=O)NCCCOCCNc4cccc5c4C(=O)N(C4CCC(=O)NC4=O)C5=O)CC3)cc2)cc(C(=O)NCc2c(C)cc(C)[nH]c2=O)c1C)C1CCOCC1 (stereo not drawn) [Example 15, N-((4,6-dimethyl-2-oxo-1,2-dihydropyridine-3-yl)methyl)-4′-((4-(2-((3-(2-((2-(2,6-dioxopiperidine-3-yl)-1,3-dioxoisoindoline-4-yl)amino)ethoxy)propyl)amino)-2-oxoethyl)piperazine-1-yl)methyl)-5-(ethyl(tetrahydro-2H-pyran-4-yl)amino)-4-methyl-[1,1′-biphenyl]-3-carboxamide] | D (<25%) | 0 | –
3 | CCN(c1cc(-c2ccc(CN3CCN(CCCCCCCOc4cccc5c4C(=O)N(C4CCC(=O)NC4=O)C5=O)CC3)cc2)cc(C(=O)NCc2c(C)cc(C)[nH]c2=O)c1C)C1CCOCC1 (stereo not drawn) [Example 10, N-((4,6-dimethyl-2-oxo-1,2-dihydropyridine-3-yl)methyl)-4′-((4-(7-((2-(2,6-dioxopiperidine-3-yl)-1,3-dioxoisoindoline-4-yl)oxy)heptyl)piperazine-1-yl)methyl)-5-(ethyl(tetrahydro-2H-pyran-4-yl)amino)-4-methyl-[1,1′-biphenyl]-3-carboxamide] | D (<25%) | 0 | –
4 | CCN(c1cc(-c2ccc(CN3CCN(CCCCCNc4cccc5c4C(=O)N(C4CCC(=O)NC4=O)C5=O)CC3)cc2)cc(C(=O)NCc2c(C)cc(C)[nH]c2=O)c1C)C1CCOCC1 (stereo not drawn) [Example 2, N-((4,6-dimethyl-2-oxo-1,2-dihydropyridine-3-yl)methyl)-4′-((4-(5-((2-(2,6-dioxopiperidine-3-yl)-1,3-dioxoisoindoline-4-yl)amino)pentyl)piperazine-1-yl)methyl)-5-(ethyl(tetrahydro-2H-pyran-4-yl)amino)-4-methyl-[1,1′-biphenyl]-3-carboxamide] | D (<25%) | 18.10 | –
5 | CCN(c1cc(-c2ccc(CN3CCN(C(=O)c4cn(CCCNc5cccc6c5C(=O)N(C5CCC(=O)NC5=O)C6=O)nn4)CC3)cc2)cc(C(=O)NCc2c(C)cc(C)[nH]c2=O)c1C)C1CCOCC1 (stereo not drawn) [Example 25, N-((4,6-dimethyl-2-oxo-1,2-dihydropyridine-3-yl)methyl)-4′-((4-(1-(3-((2-(2,6-dioxopiperidine-3-yl)-1,3-dioxoisoindoline-4-yl)amino)propyl)-1H-1,2,3-triazole-4-carbonyl)piperazine-1-yl)methyl)-5-(ethyl(tetrahydro-2H-pyran-4-yl)amino)-4-methyl[1,1′-biphenyl]-3-carboxamide] | D (<25%) | 7.41 | –
6 | CCN(c1cc(-c2ccc(CN3CCN(C(=O)c4cn(CCC(=O)N[C@H](C(=O)N5C[C@H](O)C[C@H]5C(=O)NCc5ccc(-c6scnc6C)cc5)C(C)(C)C)nn4)CC3)cc2)cc(C(=O)NCc2c(C)cc(C)[nH]c2=O)c1C)C1CCOCC1 [Example 47, (2S,4R)-1-((S)-2-(3-(4-(4-((3′-(((4,6-dimethyl-2-oxo-1,2-dihydropyridine-3-yl)methyl)carbamoyl)-5′-(ethyl(tetrahydro-2H-pyran-4-yl)amino)-4′-methyl-[1,1′-biphenyl]-4-yl)methyl)piperazine-1-carbonyl)-1H-1,2,3-triazole-1-yl)propanamido)-3,3-dimethylbutanoyl)-4-hydroxy-N-(4-(4-methylthiazole-5-yl)benzyl)pyrrolidine-2-carboxamide] | D (<25%) | 0 | –
7 | CCN(c1cc(-c2ccc(CN3CCN(C(=O)c4cn(CCCCCNc5cccc6c5C(=O)N(C5CCC(=O)NC5=O)C6=O)nn4)CC3)cc2)cc(C(=O)NCc2c(C)cc(C)[nH]c2=O)c1C)C1CCOCC1 (stereo not drawn) [Example 32, N-((4,6-dimethyl-2-oxo-1,2-dihydropyridine-3-yl)methyl)-4′-((4-(1-(5-((2-(2,6-dioxopiperidine-3-yl)-1,3-dioxoisoindoline-4-yl)amino)pentyl)-1H-1,2,3-triazole-4-carbonyl)piperazine-1-yl)methyl)-5-(ethyl(tetrahydro-2H-pyran-4-yl)amino)-4-methyl-[1,1′-biphenyl]-3-carboxamide] | C (25-50%) | 31.67 | –
8 | CCN(c1cc(-c2ccc(CN3CCN(CC(=O)N4CCC5(CCN(CCCC(=O)N[C@H](C(=O)N6C[C@H](O)C[C@H]6C(=O)NCc6ccc(-c7scnc7C)cc6)C(C)(C)C)CC5)CC4)CC3)cc2)cc(C(=O)NCc2c(C)cc(C)[nH]c2=O)c1C)C1CCOCC1 [Example 45, (2S,4R)-1-((S)-2-(4-(9-(2-(4-((3′-(((4,6-dimethyl-2-oxo-1,2-dihydropyridine-3-yl)methyl)carbamoyl)-5′-(ethyl(tetrahydro-2H-pyran-4-yl)amino)-4′-methyl-[1,1′-biphenyl]-4-yl)methyl)piperazine-1-yl)acetyl)-3,9-diazaspiro[5.5]undecane-3-yl)butanamido)-3,3-dimethylbutanoyl)-4-hydroxy-N-(4-(4-methylthiazole-5-yl)benzyl)pyrrolidine-2-carboxamide] | A (>75%) | 76.02 | excellent effects
9 | CCN(c1cc(-c2ccc(CN3CCN(CC(=O)NCCOc4cccc5c4C(=O)N(C4CCC(=O)NC4=O)C5=O)CC3)cc2)cc(C(=O)NCc2c(C)cc(C)[nH]c2=O)c1C)C1CCOCC1 (stereo not drawn) [Example 5, N-((4,6-dimethyl-2-oxo-1,2-dihydropyridine-3-yl)methyl)-4′-((4-(2-((2-((2-(2,6-dioxopiperidine-3-yl)-1,3-dioxoisoindoline-4-yl)oxy)ethyl)amino)-2-oxoethyl)piperazine-1-yl)methyl)-5-(ethyl(tetrahydro-2H-pyran-4-yl)amino)-4-methyl-[1,1′-biphenyl]-3-carboxamide] | D (<25%) | 0 | –
10 | CCN(c1cc(-c2ccc(CN3CCN(CCCCCCCNc4cccc5c4C(=O)N(C4CCC(=O)NC4=O)C5=O)CC3)cc2)cc(C(=O)NCc2c(C)cc(C)[nH]c2=O)c1C)C1CCOCC1 (stereo not drawn) [Example 11, N-((4,6-dimethyl-2-oxo-1,2-dihydropyridine-3-yl)methyl)-4′-((4-(7-((2-(2,6-dioxopiperidine-3-yl)-1,3-dioxoisoindoline-4-yl)amino)heptyl)piperazine-1-yl)methyl)-5-(ethyl(tetrahydro-2H-pyran-4-yl)amino)-4-methyl-[1,1′-biphenyl]-3-carboxamide] | D (<25%) | 12.87 | –
